Data published in patent US20090227025A1, “Ex vivo human lung/immune system model using tissue engineering for studying microbial pathogens with lung tropism” (priority 2003, published 2009).
Values joined by “and” are separate entries in the source; they are usually repeats but may differ in a detail not shown here. Equal entries are not always repeated.

Legend:
[1] = tested on: influenza A virus A/Marton/43 (H1N1); format: cell-based
influenza A virus = format: cell-based

CC(=O)N[C@H]1[C@H]([C@H](O)[C@H](O)CO)OC(C(=O)O)=C[C@@H]1NC(=N)N [Neuraminidase inhibitor, 4-guanidino-2,4-dideoxy-2,3-dehydro-N-acetylneuraminic acid]
average virus titer [1]: 4.93 × 10^5 and 2.7 × 10^5
virus localisation in treated TE cultures (staining, FIGS. 12A-F) (influenza A virus): accumulation of clumped virus
